Here are results for 2 molecules from US10098904B2, “Zidovudine combination therapies for treating microbial infections” (HELPERBY THERAPEUTICS LIMITED, priority 2014, dated 2018).

The test system of one assay is NDM-1 BAA2469 E. coli. Format: in vivo. Particulars: mice, intravenous; rifampicin 10 mg/kg, colistin 20 mg/kg, HT0120663 5 mg/kg; singly.
In assay [1] the test system is NDM-1 BAA2470 K. pneumoniae. Type of assay: in vivo. Particulars: mice, intravenous; rifampicin 10 mg/kg, colistin 20 mg/kg, HT0120663 5 mg/kg; singly.
A further assay has as its system enterobacteria. Particulars: on some enterobacteria; cited from earlier work.

For Colistin, the “in vivo activity of drug alone” value (in the assay on NDM-1 BAA2469 E. coli; in assay [1]) was “no in vivo activity” in each case.
Turning to `Cc1cn([C@H]2C[C@H](N=[N+]=[N-])[C@@H](CO)O2)c(=O)[nH]c1=O` [HT0120663, Zidovudine], the “in vivo activity of drug alone” value (in the assay on NDM-1 BAA2469 E. coli; in assay [1]) was “no in vivo activity” in each case. Besides, the antibacterial effect result with enterobacteria is “bactericidal effect”.
